Data published in patent US20240239774A1, “SOLUBLE ADENYLYL CYCLASE (SAC) INHIBITORS AND USES THEREOF” (Cornell University, priority 2021, published 2024).
Each block holds one compound with its values, some of them ahead of it.

Key:
[1] = tested on: purified recombinant human sAC protein; format: biochemical; details: 1 mM ATP, 2 mM CaCl2, 4 mM MgCl2, 40 mM NaHCO3
Description: Assays for sAC activity using purified protein were performed in 100 μl reactions containing 4 mM MgCl2, 2 mM CaCl2, 1 mM ATP, 40 mM NaHCO3, 50 mM Tris pH 7.5, and 3 mM DTT. Each reaction contained ˜1,000,000 counts of α-^32P labeled ATP.
All in vitro adenylyl cyclase activity assays were performed via the “two-column” method measuring the conversion of [α-^32P] ATP into [^32P] cAMP, as previously described [References 81, 82]. Briefly, human sACt protein [Reference 21] was incubated in buffer containing 50 mM Tris-HCl, pH 7.5, 4 mM MgCl2, 2 mM CaCl2, 1 mM ATP, 3 mM DTT, 40 mM NaHCO3 in the presence of the indicated concentrations of different sAC inhibitors or vehicle (DMSO).

[2] = tested on: wild type C57B1/6 male mice; assay: Imiquimod-induced type 17 skin inflammation, topical treatment; format: in vivo, mouse; details: for Il17a and Il17f expression in the skin (qRT-PCR) / skin inflammation (ear thickness): imiquimod 6 days, then continued imiquimod plus topical twice a day: LRE1 3%, Clobetasol 0.05%; for skin inflammation (ear thickness): Example 1 […]
Description: Wild type C57B1/6 male mice 8-10 week old were purchased from Jackson labs. A 7 mm diameter circle was shaved and treated with Nair on the flank. Baseline ear thickness was measured. For 5 days, mice received daily treatment of 30 mg of 5% imiquimod cream (Taro) to each ear and to the 7 mm area on the flank. Ear thickness was recorded on days 3 and 5 to ensure peak inflammation had occurred. Mice were then randomized into three cohorts: vehicle, LRE1, and Clobetasol. […] Treatment with imiquimod was continued during this period as above. Ear thickness was recorded every day before the first dose of drug. On day 11, all mice were euthanized. A 7 mm punch biopsy was collected from the flank and both ears were removed. Skin was stored in RNAlater (Sigma) for qPCR or 10% formalin for immunohistochemistry.
For tissue, RNA was isolated according to specifications of the RNA easy plus universal mini kit (Qiagen). Tissue was homogenized using stainless steel beads in a bead beater. For frozen cell pellets, RNA was isolated according to specifications of the RNA easy plus mini kit (Qiagen). Samples were homogenized using Qiashredder columns (Qiagen). RNA quality control was performed using a nanodrop spectrophotometer. cDNA was made using the high-capacity rna-to-cdna kit (thermo fischer). The applied biosystems power SYBR green PCR master mix was used for qPCR. 40 cycles with annealing temperatures of 60 degrees celsius and a melting curve were performed using the QuantStudio 6 real-time PCR instrument (thermo fischer). Delta delta CT analysis was performed to determine relative transcription amongst samples normalized to GAPDH.

[3] = cited from earlier work

Structure (SMILES): Nc1nc(Cl)cc(-c2nn(C(F)F)cc2Cc2ccccc2OCC(=O)N2CCOCC2)n1 [Example 95]
IC50 [1]: 15 nM

Structure (SMILES): Cn1cc(Cc2ccccc2OCCN2CCOCC2)c(-c2cc(Cl)nc(N)n2)n1 [Example 69, 4-chloro-6-[1-methyl-4-[[2-(2-morpholinoethoxy)phenyl]methyl]pyrazol-3-yl]pyrimidin-2-amine]
reduction in inflammation ([2]; imiquimod for one week, then imiquimod plus compound, over 4 days, N=5): 50%

Structure (SMILES): CCCc1nn(C)c2c(=O)[nH]c(-c3cc(S(=O)(=O)N4CCN(C)CC4)ccc3OCC)nc12 [sildenafil]
half-lives [3]: 4 to 5 h

Structure (SMILES): CCCc1nc(C)c2c(=O)[nH]c(-c3cc(S(=O)(=O)N4CCN(CC)CC4)ccc3OCC)nn12 [vardenafil]
half-lives [3]: 4 to 5 h

Structure (SMILES): Cn1cc(Cc2ccc(Cl)cc2)c(-c2cc(Cl)nc(N)n2)n1 [Example 13]
IC50 [1]: ~1000 nM

Structure (SMILES): C[C@H]1C[C@H]2[C@@H]3CCC4=CC(=O)C=C[C@]4(C)[C@@]3(F)[C@@H](O)C[C@]2(C)[C@@]1(O)C(=O)CCl [Clobetasol]
Il17a and Il17f expression in the skin (qRT-PCR) [2]: significant reductions in Il17a and Il17f expression | skin inflammation (ear thickness) [2]: significant reduction in skin inflammation

Structure (SMILES): Nc1nc(Cl)cc(N(Cc2ccsc2)C2CC2)n1 [LRE1]
inflammation in the ears measured by ear calipers ([2]; applied at the same time as imiquimod, N=5): reduce the inflammation | Il17a and Il17f expression in the skin (qRT-PCR) [2]: significant reductions in Il17a and Il17f expression | skin inflammation (ear thickness) [2]: significant reduction in skin inflammation

Structure (SMILES): Nc1nc(Cl)cc(-c2nn(C(F)F)cc2Cc2ccccc2)n1 [Example 18]
IC50 [1]: 110 nM

Now from value to compound:

IC50 [1]: 1200 nM
Structure (SMILES): CNC(=O)c1ccccc1Cc1cn(C)nc1-c1cc(Cl)nc(N)n1 [Example 52]

IC50 [1]: 60 nM
Structure (SMILES): Cn1cc(Cc2ccccc2Cl)c(-c2cc(Cl)nc(N)n2)n1 [Example 15]

IC50 [1]: 58 nM
Structure (SMILES): COc1ccccc1Cc1cn(C)nc1-c1cc(Cl)nc(N)n1 [Example 28]

IC50 [1]: 75 nM
Structure (SMILES): Cn1cc(Cc2cccc(Cl)c2)c(-c2cc(Cl)nc(N)n2)n1 [Example 11]
